Laboratory results reported in PubChem BioAssay AID2060621 (Molecular Pharmacology Branch, DTP, NCI, 2025).
pIC50: −log10 of the molar value. “And” between values parts separate entries of the source, which are not always exact repeats. Equal values may be shown once.

System: 324938-238-R-J1-PDC complex spheroids viability
Experiment: Anticancer human tumor 324938-238-R-J1-PDC patient-derived bladder carcinoma cell line growth inhibition [CLK]
Settings: for viability, T/C: stronger effect = lower value; active means viability on the fitted dose curve at most 10% of control; inactive means the rest
Method in brief: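 Patient-derived tumor cells grown as complex spheroids with HUVEC endothelial cells and mesenchymal stem cells, treated with drug combinations. Concentrations descend in half-log steps from near clinical Cmax, or from 10 microM if Cmax unknown.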

[1] = curve of first compound, second compound 0.0316 µM
[2] = curve of first compound, second compound 0.1 µM
[3] = curve of first compound, second compound 0.316 µM
[4] = curve of first compound, second compound 1 µM
[5] = curve of first compound, second compound 3.16 µM
[6] = curve of first compound, second compound 10 µM
[7] = second compound 0.0316 µM, first compound 0.0316 µM
[8] = second compound 0.0316 µM, first compound 0.1 µM
[9] = second compound 0.0316 µM, first compound 0.316 µM
[10] = second compound 0.0316 µM, first compound 1 µM
[11] = second compound 0.0316 µM, first compound 3.16 µM
[12] = second compound 0.0316 µM, first compound 10 µM
[13] = second compound 0.1 µM, first compound 0.0316 µM
[14] = second compound 0.1 µM, first compound 0.1 µM
[15] = second compound 0.1 µM, first compound 0.316 µM
[16] = second compound 0.1 µM, first compound 1 µM
[17] = second compound 0.1 µM, first compound 3.16 µM
[18] = second compound 0.1 µM, first compound 10 µM
[19] = second compound 0.316 µM, first compound 0.0316 µM
[20] = second compound 0.316 µM, first compound 0.1 µM
[21] = second compound 0.316 µM, first compound 0.316 µM
[22] = second compound 0.316 µM, first compound 1 µM
[23] = second compound 0.316 µM, first compound 3.16 µM
[24] = second compound 0.316 µM, first compound 10 µM
[25] = second compound 1 µM, first compound 0.0316 µM
[26] = second compound 1 µM, first compound 0.1 µM
[27] = second compound 1 µM, first compound 0.316 µM
[28] = second compound 1 µM, first compound 1 µM
[29] = second compound 1 µM, first compound 3.16 µM
[30] = second compound 1 µM, first compound 10 µM
[31] = second compound 3.16 µM, first compound 0.0316 µM
[32] = second compound 3.16 µM, first compound 0.1 µM
[33] = second compound 3.16 µM, first compound 0.316 µM
[34] = second compound 3.16 µM, first compound 1 µM
[35] = second compound 3.16 µM, first compound 3.16 µM
[36] = second compound 3.16 µM, first compound 10 µM
[37] = second compound 10 µM, first compound 0.0316 µM
[38] = second compound 10 µM, first compound 0.1 µM
[39] = second compound 10 µM, first compound 0.316 µM
[40] = second compound 10 µM, first compound 1 µM
[41] = second compound 10 µM, first compound 3.16 µM
[42] = second compound 10 µM, first compound 10 µM
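Further: viability read after seven days of drug exposure.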
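Wherever viability, T/C is given: 100% = DMSO vehicle control wells.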

COc1cccc2c1C(=O)c1c(O)c3c(c(O)c1C2=O)CC(O)(C(=O)CO)CC3OC1CC(N)C(O)C(C)O1 (configuration not stated) + CN1CCN(c2cc(C(=O)Nc3cc4cc(-c5cnn(C)c5)ccc4cn3)ccn2)CC1
> 7.50: pIC50 [1] | pIC50 [2] | pIC50 [3] | pIC50 [4] | pIC50 [5] | pIC50 [6]
inactive: viability, T/C [7] 19.4% | viability, T/C [8] 14.4% | viability, T/C [13] 16.9% | viability, T/C [14] 16.5% | viability, T/C [19] 17.8% | viability, T/C [20] 16.2%
active: viability, T/C [9] 8.3% | viability, T/C [10] 0.88% | viability, T/C [11] 0.09% | viability, T/C [12] 0.14% | viability, T/C [15] 8.06% | viability, T/C [16] 0.56% | viability, T/C [17] 0.09% | viability, T/C [18] 0.68% | viability, T/C [21] 4.21% | viability, T/C [22] 0.29% | viability, T/C [23] 0.07% | viability, T/C [24] 0.12% | viability, T/C [25] 0.37% | viability, T/C [26] 0.2% | viability, T/C [27] 0.1% | viability, T/C [28] 0.09% | viability, T/C [29] 0.35% | viability, T/C [30] 0.44% | viability, T/C [31] 0.12% | viability, T/C [32] 0.28% | viability, T/C [33] 0.17% | viability, T/C [34] 0.06% | viability, T/C [35] 0.22% | viability, T/C [36] 0.3% | viability, T/C [37] 0.09% | viability, T/C [38] 0.18% | viability, T/C [39] 0.26% | viability, T/C [40] 0.1% | viability, T/C [41] 0.15% | viability, T/C [42] 0.48%

C=CC(=O)N1CCN(c2nc(=O)n(-c3c(C)ccnc3C(C)C)c3nc(-c4c(O)cccc4F)c(F)cc23)C(C)C1 (configuration not stated) + CN1CCN(c2cc(C(=O)Nc3cc4cc(-c5cnn(C)c5)ccc4cn3)ccn2)CC1
inactive: viability, T/C [7] 79.2% | viability, T/C [8] 77.8% | viability, T/C [9] 84.5% | viability, T/C [10] 103% | viability, T/C [11] 87.4% | viability, T/C [12] 82.7% | viability, T/C [13] 59.6% | viability, T/C [14] 61.4% | viability, T/C [15] 63.2% | viability, T/C [16] 64.8% | viability, T/C [17] 66.6% | viability, T/C [18] 59.9% | viability, T/C [19] 27.4% | viability, T/C [20] 25% | viability, T/C [21] 27.4% | viability, T/C [22] 28.9% | viability, T/C [23] 35.5% | viability, T/C [24] 27.8%
> 7.50: pIC50 [3] | pIC50 [4] | pIC50 [5] | pIC50 [6]
< 5.00: pIC50 [1] | pIC50 [2]
active: viability, T/C [25] 1.25% | viability, T/C [26] 1.85% | viability, T/C [27] 1.99% | viability, T/C [28] 1.7% | viability, T/C [29] 1.08% | viability, T/C [30] 0.78% | viability, T/C [31] 0.13% | viability, T/C [32] 0.25% | viability, T/C [33] 0.19% | viability, T/C [34] 0.16% | viability, T/C [35] 0.12% | viability, T/C [36] 0.25% | viability, T/C [37] 0.2% | viability, T/C [38] 0.19% | viability, T/C [39] 0.18% | viability, T/C [40] 0.15% | viability, T/C [41] 0.16% | viability, T/C [42] 0.33%

Cn1ncnc1[C@H]1c2n[nH]c(=O)c3cc(F)cc(c23)N[C@@H]1c1ccc(F)cc1 + CN1CCN(c2cc(C(=O)Nc3cc4cc(-c5cnn(C)c5)ccc4cn3)ccn2)CC1
inactive: viability, T/C (second compound 0.0316 µM, first compound 0.000316 µM) 78% | viability, T/C (second compound 0.0316 µM, first compound 0.001 µM) 74% | viability, T/C (second compound 0.0316 µM, first compound 0.00316 µM) 58.2% | viability, T/C (second compound 0.0316 µM, first compound 0.01 µM) 51.9% | viability, T/C [7] 32.5% | viability, T/C [8] 24.4% | viability, T/C (second compound 0.1 µM, first compound 0.000316 µM) 57.5% | viability, T/C (second compound 0.1 µM, first compound 0.001 µM) 54.8% | viability, T/C (second compound 0.1 µM, first compound 0.00316 µM) 43.6% | viability, T/C (second compound 0.1 µM, first compound 0.01 µM) 32.7% | viability, T/C [13] 27% | viability, T/C [14] 19.8% | viability, T/C (second compound 0.316 µM, first compound 0.000316 µM) 23.8% | viability, T/C (second compound 0.316 µM, first compound 0.001 µM) 22.4% | viability, T/C (second compound 0.316 µM, first compound 0.00316 µM) 23.1% | viability, T/C (second compound 0.316 µM, first compound 0.01 µM) 21.2% | viability, T/C [19] 18.5% | viability, T/C [20] 15%
> 9.50: pIC50 [3] | pIC50 [4] | pIC50 [5] | pIC50 [6]
active: viability, T/C (second compound 1 µM, first compound 0.000316 µM) 0.86% | viability, T/C (second compound 1 µM, first compound 0.001 µM) 0.77% | viability, T/C (second compound 1 µM, first compound 0.00316 µM) 0.99% | viability, T/C (second compound 1 µM, first compound 0.01 µM) 0.51% | viability, T/C [25] 0.6% | viability, T/C [26] 1.4% | viability, T/C (second compound 3.16 µM, first compound 0.000316 µM) 0.15% | viability, T/C (second compound 3.16 µM, first compound 0.001 µM) 0.2% | viability, T/C (second compound 3.16 µM, first compound 0.00316 µM) 0.14% | viability, T/C (second compound 3.16 µM, first compound 0.01 µM) 0.09% | viability, T/C [31] 0.12% | viability, T/C [32] 0.14% | viability, T/C (second compound 10 µM, first compound 0.000316 µM) 0.07% | viability, T/C (second compound 10 µM, first compound 0.001 µM) 0.13% | viability, T/C (second compound 10 µM, first compound 0.00316 µM) 0.16% | viability, T/C (second compound 10 µM, first compound 0.01 µM) 0.12% | viability, T/C [37] 0.12% | viability, T/C [38] 0.19%
8.82: pIC50 [2]
8.06: pIC50 [1]

C=CC(=O)N1CCN(c2nc(=O)n(-c3c(C)ccnc3C(C)C)c3nc(-c4c(O)cccc4F)c(F)cc23)C(C)C1 (configuration not stated)
< 5.00: pIC50 (curve of compound)
inactive: viability, T/C (compound 0.0316 µM) 79.1% and 96.4% | viability, T/C (compound 0.1 µM) 91.3% and 85% | viability, T/C (compound 0.316 µM) 85.2% and 93.5% | viability, T/C (compound 1 µM) 102% and 99.9% | viability, T/C (compound 3.16 µM) 105% and 99.1% | viability, T/C (compound 10 µM) 87.9% and 86.4%

Nc1ccn(C2OC(CO)C(O)C2(F)F)c(=O)n1 (configuration not stated)
8.49% and 10.3%: viability, T/C (compound 3.16 µM)
inactive: viability, T/C (compound 0.0316 µM) 27.6% and 25.4% | viability, T/C (compound 0.1 µM) 12.5% and 15%
> 7.50: pIC50 (curve of compound)
6.92% and 8.69%: viability, T/C (compound 10 µM)
10.8% and 13.3%: viability, T/C (compound 1 µM)
10.8% and 12.3%: viability, T/C (compound 0.316 µM)

O=c1[nH]cc(F)c(=O)[nH]1 + CN1CCN(c2cc(C(=O)Nc3cc4cc(-c5cnn(C)c5)ccc4cn3)ccn2)CC1
7.03: pIC50 [2]
inactive: viability, T/C [7] 74% | viability, T/C [8] 72.8% | viability, T/C [9] 42.1% | viability, T/C [10] 20.4% | viability, T/C [11] 23.9% | viability, T/C [12] 19.1% | viability, T/C [13] 61.5% | viability, T/C [14] 48.2% | viability, T/C [15] 36.4% | viability, T/C [16] 22.6% | viability, T/C [17] 18.2% | viability, T/C [18] 18.1% | viability, T/C [19] 23.1% | viability, T/C [20] 23.9% | viability, T/C [21] 20.6% | viability, T/C [22] 18.9% | viability, T/C [23] 16.8% | viability, T/C [24] 17%
> 7.50: pIC50 [3] | pIC50 [4] | pIC50 [5] | pIC50 [6]
active: viability, T/C [25] 0.71% | viability, T/C [26] 1.08% | viability, T/C [27] 0.67% | viability, T/C [28] 0.81% | viability, T/C [29] 0.77% | viability, T/C [30] 1.58% | viability, T/C [31] 0.09% | viability, T/C [32] 0.15% | viability, T/C [33] 0.1% | viability, T/C [34] 0.11% | viability, T/C [35] 0.08% | viability, T/C [36] 0.19% | viability, T/C [37] 0.07% | viability, T/C [38] 0.12% | viability, T/C [39] 0.13% | viability, T/C [40] 0.09% | viability, T/C [41] 0.1% | viability, T/C [42] 0.19%
6.63: pIC50 [1]
